Measured values reported in patent US11110079B2, “Mebendazole polymorph for treatment and prevention of tumors” (THE JOHNS HOPKINS UNIVERSITY, priority 2015, dated 2021).

Legend:
[1] = test system: GL261-luc glioma; conditions: GL261, single agent 50 mg/kg; control 29.5 days
Experimental: All animal studies were approved by the Animal Care and Use Committee (ACUC) of the Johns Hopkins University. The intracranial implantation of GL261-luc in the frontal lobe and D425 cells in the cerebellum of the mouse brain followed the procedure described before (3,4). […] MBZ and other benzimidazoles were prepared by either mixing the power with PBS and sesame oil (1:1, v:v) (Sigma) or by grinding the tablets to powder and resuspending in the aforementioned PBS/sesame oil mixture. Elacridar was prepared as a 10 mg/ml suspension in 0.5% hydroxypropylmethylcellulose and 0.5% Tween 80 in PBS similarly as described before (15).
Animal survival data were analyzed by GraphPad Prism 5.0. The p-values were determined by a Mantel-Cox test. A p-value under 0.05 was accepted as statistically significant.

[2] = test system: D425 medulloblastoma; experiment: Orthotopic D425 medulloblastoma xenograft model (survival); type: in vivo, mouse; conditions: orthotopic D425 medulloblastoma xenograft; MBZ-C 50 mg/kg five days a week, elacridar 50 mg/kg 7 days
Experimental: The intracranial implantation of GL261-luc in the frontal lobe and D425 cells in the cerebellum of the mouse brain followed the procedure described before (3,4). Five days after tumor implantation, mice were gavaged with MBZ or the other benzimidazoles at 50 mg/kg five days a week. MBZ and other benzimidazoles were prepared by either mixing the power with PBS and sesame oil (1:1, v:v) (Sigma) or by grinding the tablets to powder and resuspending in the aforementioned PBS/sesame oil mixture. Elacridar was prepared as a 10 mg/ml suspension in 0.5% hydroxypropylmethylcellulose and 0.5% Tween 80 in PBS similarly as described before (15).

[3] = in vivo; conditions: mouse
Experimental: Female C57BL6 mice, 5-6 weeks of age, were purchased from NCl. Animal experimentation was conducted under an approved IACUC protocol and complied with local and national guidelines. All MBZ polymorphs and tablets were administered by oral gavage at a dose of 50 mg/kg. Elacridar was administered by oral gavage at 50 mg/kg 2 hours prior to the administration of MBZ-C. Mice (3 animals/time point) were first anesthetized via intraperitoneal injection of 60 μl of a stock solution containing ketamine hydrochloride (75 mg/kg) (100 mg/ml; Ketamine HCl; Abbot Laboratories, Chicago, Ill., USA) and xylazine (7.5 mg/kg) (100 mg/ml; Xyla-ject®, Phoenix Pharmaceutical, St. Joseph, Mo., USA) in a sterile 0.9% NaCl solution. Then the blood samples were taken by puncturing and aspiring from the left heart ventricle. Blood samples were mixed with 5 mM EDTA and centrifuged at 10000 g for 5 min to obtain the plasma for further analysis.
For brain distribution studies, mice were perfused under anesthesia with 20 ml ice-cold saline supplemented with 20 μl of 0.02% heparin by injecting slowly into the left heart ventricle using a 20 gauge needle. The right atrium was cut open before to allow the blood outflow. The yellow color of kidney indicated a good perfusion quality that was essential to deplete blood from the brain tissue. In GL261 tumor-bearing mice, GL261 tumor was distinguished from the normal brain by easily recognizable differences in color and shade. GL261 tumor was separated with a scalpel and the normal brain tissue was cut from the contralateral hemisphere. All brain samples were weighed and stored at −80° C. before processing.
Blood, brain and brain tumor tissues were harvested as a function of time after MBZ administration. To compare the pharmacokinetics of MBZ polymorphs, three cohorts of mice each were administered a single dose of 50 mg/kg by oral gavage. For the initial comparison studies, plasma samples were obtained at 1, 2.5, 4, 6, 8, 15, and 24 hours after MBZ administration while brain tissue was only collected at 6 hours. For the comparison studies of polymorph C with or without ELD, plasma and brain tissue samples were obtained at 2.5, 4, and 8 hours after MBZ administration. Brain tumor tissue samples were also obtained for polymorph C alone.
MBZ and the two metabolites, 2-amino-5-benzoyl-benzimidazole (MBZ-NH2, CAS 52329-60-9) and rac dihydro mebendazole (MBZ-OH, CAS 60254-95-7), were quantified in plasma, brain and brain tumor tissue. Tissue homogenates were prepared at a concentration of 200 mg/ml in plasma prior to extraction. Mebendazole and metabolites were extracted from 50 μl of plasma or tissue homogenates with 0.1 ml of methanol containing 0.5 μg/ml of the internal standard A620223.69. After centrifugation, the supernatant (60 μl) was mixed with water (40 μl) and then transferred into autosampler vials. […] The analytes were monitored using an AB Sciex triple quadrapole™ 5500 mass-spectrometric detector (Applied Biosystems, Foster City, Calif., USA) using electrospray ionization operating in positive mode. The spectrometer was programmed to allow the [MH+] ions of MBZ, MBZ-NH2, MBZ-OH, and A620223.69 at m/z 296.0, 238.0, 298.0, and 287.2, respectively to pass through the first quadrupole (Q1) and into the collision cell (Q2). The daughter ions for MBZ (m/z 263.9), MBZ-NH2 (m/z 105.1), MBZ-OH (m/z 266.0), and A620223.69 (m/z 124.1) were monitored through the third quadrupole (Q3). Calibration curves for MBZ and metabolites were computed using the area ratio peak of the analysis to the internal standard by using a quadratic equation with a 1/x weighting function over the range of 5 to 500 ng/ml (MBZ) and 1 to 500 ng/ml (metabolites) with dilutions of up to 1:100 (v:v). If one or more concentrations were below limits of quantification, a value of ½ the limit of quantification was assigned for pharmacokinetic calculations.

[4] = test system: HT29; experiment: HT29 colon cancer flank xenograft; type: in vivo, Nude mice
Experimental: (§1) FIGS. 9A-9E. […] Two human colorectal carcinoma cell lines, HT29 and SW480, were implanted subcutaneously into the flanks of Nude mice and treated for four weeks with 50 mg/kg MBZ by oral gavage. Tumor volumes were measured twice weekly, averaged, and plotted over the course of the experiment. HT29 xenograft (FIG. 9A) and SW480 xenograft (B) growth inhibitory curves. Resected flank tumors from each group were weighed at the end of the experiment and compared to untreated control (FIG. 9C, FIG. 9D) Paraffin-embedded flank tumor tissues were stained for Ki67 proliferation marker. […] Five randomly selected fields from each slide were quantified as the percent Ki67-positive cell×100/total number of cells and represent the mean+SEM of five animals. *, P<0.05.

[5] = test system: SW480; experiment: SW480 colon cancer flank xenograft; type: in vivo, Nude mice
Experimental: as §1

[6] = test system: polyps in the intestine of APC min/+ mice; experiment: APC min/+ mouse chemoprevention study (intestinal polyps); type: in vivo
Experimental: The average number of polyps for each treatment group were graphed for the proximal, middle and distal small intestines and colon (FIG. 11A). Individual polyps were measured and categorized based on size. The average number of polyps for Sulindac versus the combiniation of MBZ+Sulindac were analyzed separately for each section of the intestine (FIG. 11B).

[7] = test system: glioma and medulloblastoma cell lines; conditions: tissue culture; cited from earlier work
[8] = mice; cited from earlier work
[9] = human; cited from earlier work

Row | SMILES | median survival [1] [days] | median survival [2] [days] | effect of ELD on average B/P ratios of MBZ [3] | distribution in GL261 brain tumor vs contralateral normal brain tissue ([3]; po, 50 mg/kg) | Ki67 proliferation marker staining ([4]; HT29 flank tumor tissue) | c-myc and Bcl-2 protein expression ([4]; HT29 flank xenograft lysates) | tumor growth and proliferation ([4]; HT29 xenograft, 50 mg/kg MBZ oral gavage four weeks) | Ki67 proliferation marker staining ([5]; SW480 flank tumor tissue) | c-myc and Bcl-2 protein expression ([5]; SW480 flank xenograft lysates) | tumor growth and proliferation ([5]; SW480 xenograft, 50 mg/kg MBZ oral gavage four weeks) | formation, occurrence and size of polyps [6] | IC50 [7] [nM] | B/P ratio [8] | cerebrospinal fluid (CSF)/plasma ratio [9]
1 | COC(=O)Nc1nc2ccc(C(=O)c3ccccc3)cc2[nH]1 [MBZ, Mebendazole] | 53 | 53 | elevated | did not differ significantly | significantly less positive | reduction of these proteins in most cases | inhibits growth and proliferation | significantly less positive | reduction of these proteins in most cases | inhibits growth and proliferation | reduces the formation of polyps | 110 to 1000 |  | 
2 | Cn1nnc2c(C(N)=O)ncn2c1=O [temozolomide] |  |  |  |  |  |  |  |  |  |  |  |  | 0.408 | 0.2
